Laboratory results: patent publication US8921576B2, “Spiroindoline compound, and medicinal agent comprising same” (Kowa Company, Ltd., priority 2011, dated 2014)

Each compound was assayed against T1, GST-GK derived from human liver GK (Homo sapiens, UniProt P35557) (assay: In vitro GK activity measurement test (G6PDH-coupled, OD340)). Details: test compound 1 μmol/L; glucose 2.5 mmol/L; 25° C.; OD340 slope with compound / without compound; read-out: GK activation rate (%).
T1 construct: made in house; host or cells: Escherichia coli DH5α
T1 sequence (P35557 1-466 isoform P35557-2): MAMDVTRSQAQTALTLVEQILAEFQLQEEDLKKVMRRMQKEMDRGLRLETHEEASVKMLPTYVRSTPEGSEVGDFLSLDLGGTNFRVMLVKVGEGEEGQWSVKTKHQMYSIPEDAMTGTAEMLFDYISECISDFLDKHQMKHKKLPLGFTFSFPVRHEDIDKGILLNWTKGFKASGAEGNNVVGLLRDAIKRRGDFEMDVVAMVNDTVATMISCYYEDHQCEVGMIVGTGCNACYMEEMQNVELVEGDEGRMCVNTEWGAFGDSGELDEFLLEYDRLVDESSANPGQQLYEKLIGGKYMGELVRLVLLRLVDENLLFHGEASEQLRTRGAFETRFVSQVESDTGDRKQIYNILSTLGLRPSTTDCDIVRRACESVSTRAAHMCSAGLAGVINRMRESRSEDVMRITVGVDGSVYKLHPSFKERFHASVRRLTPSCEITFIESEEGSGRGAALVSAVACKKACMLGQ
Assay type: biochemical
Text: cDNA (GenBank Accession No. NM_033507, human glucokinase, variant 2) encoding human liver-type GK polypeptide was cloned by performing a polymerase chain reaction (hereinafter referred to as “PCR”) using a human liver cDNA library (Human liver QUICK-Clone cDNA, TAKARA BIO INC.), and the thus cloned cDNA was then introduced into an expression vector (pGEX-3X, GE Healthcare Japan) for glutathione S transferase (hereinafter referred to as GST) fusion protein expression. The resulting vector was introduced into Escherichia coli (Competent high DH5α, Toyobo Co., Ltd.), and the transformed Escherichia coli was then cultured at 37° C. Thereafter, Isopropyl β-D-1-thiogalactopyranoside (final concentration: 1 mmol/L, Sigma Aldrich Japan) was added to the culture, and the obtained mixture was then cultured at 30° C. for 3 hours. Thereafter, a cell mass was recovered. The recovered cell mass was subjected to freezing-and-thawing, and the resulting cell mass was then suspended in phosphate buffer with final concentration of 1% Triton X-100, followed by disintegration with an ultrasonic disruptor. The homogenate was centrifuged at 33,200 rpm at 4° C. for 1 hour. Thereafter, the supernatant was recovered, and a GST-GK fusion protein was then purified using a glutathione column (GSTrap FF, GE Healthcare Japan). The obtained GST-GK fusion protein was divided into some portions each having a small volume, and the thus divided proteins were then preserved at −80° C.
A GK assay method was carried out at 25° C. at a final incubation volume of 100 μL in a flat-bottom 96-well assay plate. An assay buffer comprised 25 mmol/L Hepes buffer (pH 7.1), 25 mmol/L KCl, 2.5 mmol/L or 10 mmol/L D-glucose, 5 mmol/L ATP, 1 mmol/L nicotinamide adenine dinucleotide phosphate (abbreviated as NADP), 2 mmol/L MgCl2, 1 mmol/L dithiothreitol (DTT), 2 units/mL glucose-6 phosphate dehydrogenase (G6PDH), and 1 μg/mL GST-GK derived from human liver GK. ATP, G6PDH, and NADP were purchased from Roche Diagnostics. […] The thus mixed solution was preincubated in an incubator in which the temperature was controlled at 25° C. for 15 minutes. Subsequently, the reaction was initiated by adding 10 μL of the GST-GK solution to the reaction mixture, resulting in a final concentration of 0.1 μg/mL. After initiation of the reaction, an increase in the optical concentration at 340 nm (OD340) was monitored with a microplate spectrophotometer (Varsamax, Molecular Devices Japan K.K.) every 10 seconds over an incubation period of 10 minutes. An inclination of the OD340 increase was defined as raw data. The GK activating rate was indicated as a numerical value obtained from the expression: (Inclination of OD340 increase by addition of the test compound)/(inclination of OD340 increase without addition of the test compound). The results of the GK activating rate obtained at a test compound concentration of 1 μmol/L under the condition of a glucose concentration of 2.5 mmol/L are shown in the following table.

SMILES | activity at 1 µM [%]
CNC(=O)CCCSc1cnc(NC(=O)N2CC3(CCN(C(=O)OC)C3)c3cc(Cl)ccc32)s1 (centres unmarked) [Example 164, methyl 5-chloro-1-((5-((4-(methylamino)-4-oxobutyl)thio)thiazol-2-yl)carbamoyl)spiro[indoline-3,3′-pyrrolidine]-1′-carboxylate] | 567
COC(=O)N1CC[C@@]2(C1)CN(C(=O)Nc1ncc(SCC(=O)O)s1)c1ccc(Br)cc12 [Example 336, (S)-2-((2-(5-bromo-1′-(methoxycarbonyl)spiro[indoline-3,3′-pyrrolidin]-1-ylcarboxamido)thiazol-5-yl)thio)acetic acid] | 451
COC(=O)N1CC[C@@]2(C1)CN(C(=O)Nc1ncc(F)s1)c1ccc(Cl)cc12 [Example 355, (S)-methyl 5-chloro-1-((5-fluorothiazol-2-yl)carbamoyl)spiro[indoline-3,3′-pyrrolidine]-1′-carboxylate] | 636
COC(=O)N1CC[C@@]2(C1)CN(C(=O)Nc1ncc(Cl)s1)c1ccc(Cl)cc12 [Example 351, (S)-methyl 5-chloro-1-((5-chlorothiazol-2-yl)carbamoyl)spiro[indoline-3,3′-pyrrolidine]-1′-carboxylate] | 886
COc1ccc2nc(NC(=O)N3CC4(CCN(C(C)=O)C4)c4cc(S(=O)(=O)NCc5cccs5)ccc43)sc2n1 (centres unmarked) [Example 273, 1′-Acetyl-N-(5-methoxythiazolo[5,4-b]pyridin-2-yl)-5-(N-(thiophen-2-ylmethyl)sulfamoyl)spiro[indoline-3,3′-pyrrolidine]-1-carboxamide] | 692
NCC(=O)N1CCC2(C1)CN(C(=O)Nc1ncc(Cl)s1)c1ccc(Br)cc12 (centres unmarked) [Example 20, 1′-(2-aminoacetyl)-5-bromo-N-(5-chlorothiazol-2-yl)spiro[indoline-3,3′-pyrrolidine]-1-carboxamide] | 429
CC(=O)OCC(=O)N1CC[C@@]2(C1)CN(C(=O)Nc1ncc(Cl)s1)c1ccc(Cl)cc12 [Example 52, (R)-2-(5-chloro-1-((5-chlorothiazol-2-yl)carbamoyl)spiro[indoline-3,3′-pyrrolidin]-1′-yl)-2-oxoethyl acetate] | 531
COC(=O)N1CCC2(C1)CN(C(=O)Nc1ncc(SCCCNS(=O)(=O)C3CC3)s1)c1ccc(Cl)cc12 (centres unmarked) [Example 179, methyl 5-chloro-1-((5-((3-(cyclopropanesulfonamido)propyl)thio)thiazol-2-yl)carbamoyl)spiro[indoline-3,3′-pyrrolidine]-1′-carboxylate] | 669
COC(=O)N1CCC2(C1)CN(C(=O)Nc1ncc(SCCCN(C)C)s1)c1ccc(Cl)cc12 (centres unmarked) [Example 180, Methyl 5-chloro-1-((5-((3-(dimethylamino)propyl)thio)thiazol-2-yl)carbamoyl)spiro[indoline-3,3′-pyrrolidine]-1′-carboxylate] | 442
COC(=O)N1CC[C@@]2(C1)CN(C(=O)Nc1ncc(Cl)s1)c1ccc(Br)cc12 [Example 320, (S)-methyl 5-bromo-1-((5-chlorothiazol-2-yl)carbamoyl)spiro[indoline-3,3′-pyrrolidin]-1′-ylcarboxylate] | 818
COC(=O)N1CCC2(C1)CN(C(=O)Nc1nc3ccc(OC)nc3s1)c1ccc(S(=O)(=O)N(CCC(=O)O)Cc3ccccc3)cc12 (centres unmarked) [Example 307, 3-(N-benzyl-1′-(methoxycarbonyl)-1-((5-methoxythiazolo[5,4-b]pyridin-2-yl)carbamoyl)spiro[indoline-3,3′-pyrrolidin]-5-ylsulfonamido)propionic acid] | 887

The next lines start with the values.

activity at 1 µM [%] | SMILES
454 | CCOC(=O)CCNC(=O)N1CCC2(C1)CN(C(=O)Nc1ncc(Cl)s1)c1ccc(Cl)cc12 (centres unmarked) [Example 462, Ethyl 3-(5-chloro-1-((5-chlorothiazol-2-yl)carbamoyl)spiro[indoline-3,3′-pyrrolidin]-1′-ylcarboxamido)propionate]
480 | CS(=O)(=O)CCNC(=O)N1CCC2(C1)CN(C(=O)Nc1ncc(Cl)s1)c1ccc(Cl)cc12 (centres unmarked) [Example 467, 5-chloro-N1-(5-chlorothiazol-2-yl)-N1′-(2-(methylsulfonyl)ethyl)spiro[indoline-3,3′-pyrrolidine]-1,1′-dicarboxamide]
445 | CC(=O)N1CC(CNC(=O)N2CCC3(C2)CN(C(=O)Nc2ncc(Cl)s2)c2ccc(Cl)cc23)C1 (centres unmarked) [Example 476, N1′-((1-acetylazetidin-3-yl)methyl)-5-chloro-N1-(5-chlorothiazol-2-yl)spiro[indoline-3,3′-pyrrolidine]-1,1′-dicarboxamide]
506 | COc1cnc(NC(=O)N2CC3(CCN(C(C)=O)C3)c3cc(C(F)(F)F)ccc32)s1 (centres unmarked) [Example 437, 1′-Acetyl-N-(5-methoxythiazol-2-yl)-5-(trifluoromethyl)spiro[indoline-3,3′-pyrrolidine]-1-carboxamide]
633 | CNC(=S)N1CCC2(C1)CN(C(=O)Nc1ncc(Cl)s1)c1ccc(Cl)cc12 (centres unmarked) [Example 449, 5-Chloro-N-(5-chlorothiazol-2-yl)-1′-(methylcarbamothioyl)spiro[indoline-3,3′-pyrrolidine]-1-carboxamide]
470 | O=C(CCCNC(=O)N1CCC2(C1)CN(C(=O)Nc1ncc(Cl)s1)c1ccc(Cl)cc12)N1CCC1 (centres unmarked) [Example 471, N1′-(4-(Azetidin-1-yl)-4-oxobutyl)-5-chloro-N1-(5-chlorothiazol-2-yl)spiro[indoline-3,3′-pyrrolidine]-1,1′-dicarboxamide]
477 | CONC(=O)N1CCC2(C1)CN(C(=O)Nc1ncc(Cl)s1)c1ccc(Cl)cc12 (centres unmarked) [Example 480, 5-Chloro-N1-(5-chlorothiazol-2-yl)-N1′-methoxyspiro[indoline-3,3′-pyrrolidine]-1,1′-dicarboxamide]
465 | CNC(=O)N1CC[C@@]2(C1)CN(C(=O)Nc1ncc(OC)s1)c1ccc(C#N)cc12 [Example 381, (R)-5-Cyano-N1-(5-methoxythiazol-2-yl)-N1′-methylspiro[indoline-3,3′-pyrrolidine]-1,1′-dicarboxamide]
636 | CNC(=O)N1CC[C@@]2(C1)CN(C(=O)Nc1ncc(OC)s1)c1ccc(Cl)cc12 [Example 380, (R)-5-Chloro-N1-(5-methoxythiazol-2-yl)-N1′-methylspiro[indoline-3,3′-pyrrolidine]-1,1′-dicarboxamide]
437 | CNC(=O)N1CC[C@@]2(C1)CN(C(=O)Nc1ncc(F)s1)c1ccc(Cl)cc12 [Example 374, (R)-5-chloro-N1-(5-fluorothiazol-2-yl)-N1′-methylspiro[indoline-3,3′-pyrrolidine]-1,1′-dicarboxamide]
575 | COC(=O)N1CCC2(C1)CN(C(=O)Nc1ncc(SCCCNC(=O)C3CC3)s1)c1ccc(Cl)cc12 (centres unmarked) [Example 454, methyl 5-chloro-1-((5-((3-(cyclopropanecarboxamido)propyl)thio)thiazol-2-yl)carbamoyl)spiro[indoline-3,3′-pyrrolidine]-1′-carboxylate]
438 | CNC(=O)N1CCC2(C1)CN(C(=O)Nc1ncc(Cl)s1)c1ccc(CCCC(=O)N3CCC3)cc12 (centres unmarked) [Example 424, 5-(4-(Azetidin-1-yl)-4-oxobutyl)-N1-(5-chlorothiazol-2-yl)-N1′-methylspiro[indoline-3,3′-pyrrolidine]-1,1′-dicarboxamide]
